# Measurements as given in patent US20140196172A1, “Organelle Targeting Nanocarriers” (Her Majesty the Queen in Right of Canada, as Repre sented …, priority 2011, published 2014).
# Test system: proplastids of triticale microspores
# Experiment: qRT-PCR of gfp mRNA, microspores transfected with pWCaadA16GFP
# Format: cell-based
# Details: gfp reporter construct
# From the text: FIG. 18 is a plot showing the level of expression (fold increase, average of 4 replicates) of GFP in triticale microspores transfected with the pWCaadA16GFP plasmid in the presence of cTP1 (SEQ ID NO: 6), cTP2 (SEQ ID NO: 7), cTP3 (SEQ ID NO: 8), cTP4 (SEQ ID NO: 9) or cTP5 (SEQ ID NO: 10) compared to the level of expression (fold increase) of the internal control elongation factor 1a (EF1a), as measured by quantitative real time PCR of mRNA levels;
# Wheat chloroplast aadA16GFP reporter plasmid (pWCaadA16GFP, FIG. 12) is a 4212 base pair wheat specific plastid transformation vector, which targets insertions into the tml-tmA inverted repeat regions of the Triticum aestivum plastid genome at nucleotides 92850-93727 and 93794-94671 (GenBank accession No. AB042240.3). A multiple cloning site is introduced following the tml target insertion sequence. The selection marker gene is an organelle codon specific aad-gfp fusion gene, which facilitates a dual selection method of spectinomycin resistance through an aadA derivative and visual detection by GFP fluorescence (GenBank accession No. ABX39486; Khan and Maliga, Nat. Biotechnol. (1999 September) 17(9): 910-5). The selection marker gene is driven by the Triticum aestivum plastid genome promoter (psbA) at nucleotides 1282-1153 (GenBank accession No. AB042240.3). The aad-gfp fusion gene is terminated with the rice psbA terminator sequence derived from chloroplast transformation vector pVSR326 nucleotides 4014-4387 (GenBank accession No. AF527485.1).
# (§1) The dsDNA construct (pWMaadA16GFP for mitochondrial expression or pWCaadA16GFP for expression in chloroplasts) is combined with the mTP (for mitochondrial expression) or cTP (for expression in chloroplasts) in the amounts used in the protoplast transformation experiments described above in a final volume of 100 μl of NBP-99 solution. The mixture is incubated for 10 minutes at room temperature, then incubated with isolated triticale microspores (500 μl, 10^6 microspores/ml, prepared as described in Example 2) for 1 h in the dark at room temperature. NBP-99 solution (500 μl) is added and the mixture is incubated in the dark for 24 h. The cells are imaged using confocal microscopy, as described in Example 2, using MitoTracker® Orange staining to visualize mitochondria.
# (§2) Microspores are disrupted using a cleaned ceramic bead and aggressive shaking as the tissue is thawing. RLT buffer/B-Me (450 μl) is added and the sample is vortexed. The sample is heated at 55° C. for 1 minute and vortexed again. RNA is extracted using an RNeasy™ Plant Mini Kit (Qiagen), incorporating on-column DNase I digestion into the protocol. The final elution volume is 40 μl. RNA is assessed using both agarose gel […] (to ensure RNA is intact) and spectrophotometry (for quantification).
# cDNA is generated using a First Strand Synthesis kit (Invitrogen). RNA (1 μg) is added to each sample and the manufacturer's protocol for synthesis followed, with the exception that the volume of the reaction mixture is increased from 20 μl to 30 μl. A negRT sample containing all reagents but no RNA is included in the cDNA synthesis as a negative control.
# Standard curves are generated for both elongation factor 1a (EF1a) (internal control) and green fluorescent protein (GFP) (test) genes. […]
# (§3) Real time PCR reactions are performed using QuantiTect™ SYBR™ Green PCR Master Mix (Qiagen) in a 20 μl reaction volume. […]
row,Sequence,GFP expression by proplastids confirmed by qRT-PCR
1,MSSPPPLFTSCLPASSPSIRRDSTSGSVTSPLR (listed as Arabidopsis thaliana) [cTP5],GFP is expressed
2,MAALIPAIASLPRAQVEKPHPMPVSTRPGLVS (listed as Triticum aestivum) [cTP4],GFP is expressed
3,MGGCVSTPKSCVGAKLR (listed as Arabidopsis thaliana) [cTP1],GFP is expressed
4,MQTLTASSSVSSIQRHRPHPAGRRSSSVTFS (listed as Triticum aestivum) [cTP2],GFP is expressed

# Test system: mitochondria of triticale microspores
# Experiment: qRT-PCR of gfp mRNA, microspores transfected with pWMaadA16GFP
# Format: cell-based
# Details: gfp reporter construct
# From the text: FIG. 17 is a plot showing the level of expression (fold increase, average of 4 replicates) of GFP in triticale microspores transfected with the pWMaadA16GFP plasmid in the presence of mTP1 (SEQ ID NO: 1), mTP2 (SEQ ID NO: 2), mTP3 (SEQ ID NO: 3), mTP4 (SEQ ID NO: 4) or mTP5 (SEQ ID NO: 5) compared to the level of expression (fold increase) of the internal control elongation factor 1a (EF1a), as measured by quantitative real time PCR of mRNA levels;
# Wheat mitochondrial aadA16GFP reporter plasmid (pWMaadA16GFP, FIG. 11) is a 4587 base pair wheat specific mitochondrial transformation vector, which targets insertions into the fourth repeat region between the trnfM and rm18 gene cluster which is repeated three times in the Triticum aestivum mitochondrial genome. The insertion site is in the Triticum aestivum mitochondrial genome at nucleotides 300805-300878 and 300880-302834 (GenBank accession No. AP008982.1). A multiple cloning site is introduced following the tmfM target insertion sequence. The selection marker gene is an organelle codon specific aad-gfp fusion gene, which facilitates a dual selection method of spectinomycin resistance through an aadA derivative and visual detection by GFP fluorescence (GenBank accession No. ABX39486; Khan and Maliga, Nat. Biotechnol. (1999 September) 17(9): 910-5). The selection marker gene is driven by the Triticum aestivum mitochondrial atpA gene promoter (GenBank accession No. X54387.1). The aad-gfp fusion gene is terminated with the TpsbA terminator sequence derived from the Triticum aestivum mitochondrial genome at nucleotides 62871-62565 (GenBank accession No. AP008982.1).
# as §1, §2
# cDNA is generated using a First Strand Synthesis kit (Invitrogen). RNA (1 μg) is added to each sample and the manufacturer's protocol for synthesis followed, with the exception that the volume of the reaction mixture is increased from 20 μl to 30 μl. A negRT sample containing all reagents but no RNA is included in the cDNA synthesis as a negative control. […]
# as §3
row,Sequence,GFP expression by mitochondria confirmed by qRT-PCR
1,MWWRRSRTNSLRYT (listed as Arabidopsis thaliana) [mTP4],GFP is expressed
2,MAAWMRSLFSPLKKLWIRMH (Zea mays) [mTP2],GFP is expressed
3,MKLLWRLILSRKW (listed as Arabidopsis thaliana) [mTP3],GFP is expressed
4,MLFRLRRSVRLRGLLA (listed as Arabidopsis thaliana) [mTP5],GFP is expressed
5,MFSYLPRYPLRAASARALVRATRPSYRSALLRYQ (listed as Triticum aestivum) [mTP1],GFP is expressed
